# Data from patent US8143227B2, “Azithromycin for treatment of skin disorders” (priority 2008, dated 2012).
# Key:
# [1] = Azithromycin levels in plasma; conditions: for average azithromycin plasma level at steady state: steady state conditions; for AUC / AUC(0-t) / Cmax: human, plasma, po
# Procedure: Plasma levels of azithromycin were determined as follows. Thirty-nine patients were randomized into one of three treatment groups. Each patient received 40 mg (n=13), 80 mg (n=11), or 120 mg (n=15) of oral azithromycin daily. After the initial dose on day 0, a second dose was not administered until 72 hours later, so as to permit measurement of plasma levels based on a single dose and determination of pharmacokinetic parameters. Blood samples from each patient were taken at times equal to 0 (before dosing), 1, 2, 3, 4, 6, 8, 24, 48, and 72 hours after the initial oral dose. Following 72 hours, each patient received azithromycin daily for the remainder of six weeks (42 days). Blood samples were also taken at times equal to 0 hours (before dosing) and 3 hours after dosing on day 21, and at times equal to 0, 1, 2, 3, 4, 6, 8, and 24 hours following the last dose given on day 42. Plasma samples obtained from the blood samples were stored at −20° C. or lower after collection until processing and analysis.
# The amount of azithromycin in plasma was quantified using a validated high pressure liquid chromatographic assay with mass spectroscopy detection. Standards and samples were treated, by pipet addition, with 10.0 microliter of 1:1 acetonitrile/water. The standards and samples were then treated, by pipet addition, with 10.0 microliter of an Azaerythromycin A internal standard solution, followed by the addition of 2.0 mL of the mobile phase, which contained a 250:150:100:0.5:0.1 mixture of ethyl acetate, methanol, acetonitrile, formic acid and morpholine. After tightening Teflon caps onto the extraction jars containing the treated standards and samples, the jars were rotated for 2 hours at 1 rps. Next, 0.20 mL aliquots were removed from each jar and transferred to HPLC autosampler vials, and the vials capped and placed in the autosampler tray for LC-MS-MS analysis. A 5 microliter aliquot was injected from each vial into a suitable high pressure liquid chromatograph (HPLC) with suitable mass spectrophotometry-mass spectrometery detection, such as a Sciex API 3000 LC-MS-MS (GenTech Scientific, Inc., Arcade, N.Y.) with heated nebulizer source. The column used was PVA-Sil, 5 micron, 4.0×50 mm cartridge (Waters Corporation, Milford, Mass.). The flow rate was 1 ml/minute. To determine the amount of azithromycin, the peak area of the m/z 750→592 azithromycin product ion was measured against the peak area of the m/z 736→578 azaerythromycin A internal standard product ion.
# Plasma azithromycin concentrations were tabulated for each of the subjects for each dose group 40 mg/day, 80 mg/day, and 120 mg/day, respectively. The pharmacokinetic evaluation was based on individual plasma concentration-time data of azithromycin and was performed using model-independent analysis methods within WinNonlin™ version 5.0.1 (Pharsight Corporation, Mountain View, Calif.). […] Cmax, the maximum plasma concentration, was obtained directly from the concentration-time data. AUClast, the area under the plasma concentration-time curve from time 0 to time t (the time of last quantifiable plasma concentration), was calculated using the linear trapezoidal rule from predose to the last quantifiable plasma concentration. AUC24, the area under the plasma concentration-time curve from time 0 to time t=24 hours, was calculated in a manner similar to the calculation for AUClast except from predose to 24 hours.
# [2] = Azithromycin levels in skin (follicular biopsy); type: in vivo, human; conditions: for Skin Concentration (median): follicular biopsy
# Procedure: Standardized follicular biopsy samples, representative of the pilosebaceous unit of the skin, were obtained from the upper back from each of the subjects of Example 1 on study days 0, 21, 42, and 70. The samples were analyzed to determine the tissue level of azithromycin in each biopsy sample.
smiles,measurement,setting,value
"CC[C@H]1OC(=O)[C@H](C)[C@@H](O[C@H]2C[C@@](C)(OC)[C@@H](O)[C@H](C)O2)[C@H](C)[C@@H](O[C@@H]2O[C@H](C)C[C@H](N(C)C)[C@H]2O)[C@](C)(O)C[C@@H](C)CN(C)[C@H](C)[C@@H](O)[C@]1(C)O [Azithromycin, 9-deoxo-9a-aza-9a-methyl-9a-homoerythromycin A]",average maximum azithromycin plasma level,"[1]; 40 mg/day group, after administration on day 42",about 16 ng/ml
same,average maximum azithromycin plasma level,"[1]; 40 mg/day group, after initial dose",about 15 ng/ml
same,average azithromycin plasma level at steady state,[1]; 40 mg/day group,about 4 ng/ml
same,average maximum azithromycin plasma level,"[1]; 80 mg/day group, after administration on day 42",~54 ng/mL
same,average maximum azithromycin plasma level,"[1]; 80 mg/day group, after initial dose",~59 ng/mL
same,average azithromycin plasma level at steady state,[1]; 80 mg/day group,~10 ng/mL
same,average maximum azithromycin plasma level,"[1]; 120 mg/day group, after administration on day 42",~68 ng/mL
same,average maximum azithromycin plasma level,"[1]; 120 mg/day group, after initial dose",~45 ng/mL
same,average azithromycin plasma level at steady state,[1]; 120 mg/day group,~22 ng/mL
same,maximum plasma concentration compared with MIC,"[1]; day 0 and day 42, all dosages tested",less than the MIC of azithromycin for P. acnes
same,AUC,[1]; 40 mg,44.7 ng·h/mL
same,AUC(0-t),[1]; 40 mg,73.4 ng·h/mL
same,Cmax,[1]; 40 mg,7.08 ng/mL
same,AUC,[1]; 40 mg/day,132 ng·h/mL
same,Cmax,[1]; 40 mg/day,13.8 ng/mL
same,AUC,[1]; 80 mg,294 ng·h/mL
same,AUC(0-t),[1]; 80 mg,456 ng·h/mL
same,Cmax,[1]; 80 mg,60.3 ng/mL
same,AUC,[1]; 80 mg/day,528 ng·h/mL
same,Cmax,[1]; 80 mg/day,53.9 ng/mL
same,AUC,[1]; 120 mg,293 ng·h/mL
same,AUC(0-t),[1]; 120 mg,433 ng·h/mL
same,Cmax,[1]; 120 mg,57.9 ng/mL
same,AUC,[1]; 120 mg/day,752 ng·h/mL
same,Cmax,[1]; 120 mg/day,92.9 ng/mL
same,time of peak average plasma level,"[1]; post administration of initial dose, each treatment group",3 h
same,clearance of azithromycin from the pilosebaceous apparatus,[2]; after attaining saturation or near saturation levels,more than 28 days
same,Skin Concentration (median),"[2]; 40 mg/day, Day 0",0.00 ng/sample
same,Skin Concentration (median),"[2]; 40 mg/day, Day 21",0.34 ng/sample
same,Skin Concentration (median),"[2]; 40 mg/day, Day 42",0.59 ng/sample
same,Skin Concentration (median),"[2]; 40 mg/day, Day 70 (28 days after last dose)",0.00 ng/sample
same,Skin Concentration (median),"[2]; 80 mg/day, Day 0",0.00 ng/sample
same,Skin Concentration (median),"[2]; 80 mg/day, Day 21",1.34 ng/sample
same,Skin Concentration (median),"[2]; 80 mg/day, Day 42",1.68 ng/sample
same,Skin Concentration (median),"[2]; 80 mg/day, Day 70 (28 days after last dose)",0.47 ng/sample
same,Skin Concentration (median),"[2]; 120 mg/day, Day 0",0.00 ng/sample
same,Skin Concentration (median),"[2]; 120 mg/day, Day 21",1.65 ng/sample
same,Skin Concentration (median),"[2]; 120 mg/day, Day 42",1.99 ng/sample
same,Skin Concentration (median),"[2]; 120 mg/day, Day 70 (28 days after last dose)",0.50 ng/sample
same,time to effective steady state level of azithromycin in skin,"[2]; low doses, following commencement of therapy, no initial spike dose",≤ 20 days
same,"dosage at which the skin becomes saturated, theorized from the data",[2]; theorized from Table 3 data,about 95 mg/day
